This note sets out measurements from US9668480B2, “Method for treating plants against fungi resistant to fungicides using carboxamide or thiocarboxamide derivatives” (priority 2012, dated 2017).

“And” between values parts separate entries of the source, which are not always exact repeats. Equal entries are not always repeated.

Assay [1] addresses succinate-ubiquinone redutase (SDH) of mitochondria from Bo47 WT strain (Botrytis cinerea, UniProt A0A384J5E4+D2IH01+D2IH03). The experiment in a line: SDH activity of extracted mitochondria by DCPIP reduction at 595 nm, wild type. It counts as biochemical. The note with it: PI50 Bo47 (Wild type), 20 min preincubation, -log 10 of concentration inhibiting DCPIP reduction by 50%. As for the experimental part:
(§1) Compounds activity was investigated at the level of the mitochondrial target and compared to other SDH inhibitors.
(§2) Mitochondria were extracted according to Cramer et al. (1983) Analytical biochemistry, 128, 384-392 and the mycelium prepared according to Fritz et al., (1993). Agronomie 13, 225-230 except that spore's incubation was pursued for 48 hours. SDH activity was measured by following DCPIP (2,6-dichlorphenol-indophenol) reduction at 595 nm overtime. To test SDH inhibitors, mitochondria were incubated with test compounds for 20 min prior the initiation of the reaction.

In assay [2] the target is succinate-ubiquinone redutase (SDH) of mitochondria from the 3884 strain (SDHB P225H substitution) (Botrytis cinerea, UniProt A0A384J5E4+D2IH01+D2IH03, P225H). The experiment in a line: SDH activity of extracted mitochondria by DCPIP reduction at 595 nm, P225H mutant. The note with it: for IC50: mitochondria of 3884 strain, 20 min preincubation, -log 10 of concentration inhibiting DCPIP reduction by 50%, read-out: PI50 P225H3884 (converted); for Classification: pI50 on P225H 3884 mitochondria compared to WT. It counts as biochemical. Further details: key to Classification: Classification A pI50 increase or stable compared to WT; Classification B pI50 decrease inferior or equal to 0.6 compared to WT; Classification C pI50 decrease superior to 0.6 compared to WT. The method, then: as §1, §2
Sequence of succinate-ubiquinone redutase (SDH) of mitochondria from the 3884 strain (SDHB P225H substitution) (A0A384J5E4 30-300, stated change not applied): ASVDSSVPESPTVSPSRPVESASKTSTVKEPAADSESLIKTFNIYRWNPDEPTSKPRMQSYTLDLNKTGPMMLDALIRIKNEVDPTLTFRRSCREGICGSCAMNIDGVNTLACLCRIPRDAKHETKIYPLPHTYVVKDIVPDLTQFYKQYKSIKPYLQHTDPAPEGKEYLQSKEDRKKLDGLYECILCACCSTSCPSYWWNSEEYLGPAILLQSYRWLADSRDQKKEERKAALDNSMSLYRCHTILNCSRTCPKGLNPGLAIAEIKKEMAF
Sequence of succinate-ubiquinone redutase (SDH) of mitochondria from the 3884 strain (SDHB P225H substitution) (D2IH03 46-189, stated change not applied): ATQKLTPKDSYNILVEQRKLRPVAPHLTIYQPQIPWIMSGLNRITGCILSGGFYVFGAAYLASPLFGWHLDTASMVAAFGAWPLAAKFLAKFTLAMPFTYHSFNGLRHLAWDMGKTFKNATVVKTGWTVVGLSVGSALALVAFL
Sequence of succinate-ubiquinone redutase (SDH) of mitochondria from the 3884 strain (SDHB P225H substitution) (D2IH01 64-192, stated change not applied): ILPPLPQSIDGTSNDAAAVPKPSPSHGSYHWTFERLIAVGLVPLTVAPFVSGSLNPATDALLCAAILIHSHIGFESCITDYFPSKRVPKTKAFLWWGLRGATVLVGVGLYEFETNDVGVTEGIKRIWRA
Sequence of succinate-ubiquinone redutase (SDH) of mitochondria from the 3884 strain (SDHB P225H substitution) (A0A384K456 34-647 partner): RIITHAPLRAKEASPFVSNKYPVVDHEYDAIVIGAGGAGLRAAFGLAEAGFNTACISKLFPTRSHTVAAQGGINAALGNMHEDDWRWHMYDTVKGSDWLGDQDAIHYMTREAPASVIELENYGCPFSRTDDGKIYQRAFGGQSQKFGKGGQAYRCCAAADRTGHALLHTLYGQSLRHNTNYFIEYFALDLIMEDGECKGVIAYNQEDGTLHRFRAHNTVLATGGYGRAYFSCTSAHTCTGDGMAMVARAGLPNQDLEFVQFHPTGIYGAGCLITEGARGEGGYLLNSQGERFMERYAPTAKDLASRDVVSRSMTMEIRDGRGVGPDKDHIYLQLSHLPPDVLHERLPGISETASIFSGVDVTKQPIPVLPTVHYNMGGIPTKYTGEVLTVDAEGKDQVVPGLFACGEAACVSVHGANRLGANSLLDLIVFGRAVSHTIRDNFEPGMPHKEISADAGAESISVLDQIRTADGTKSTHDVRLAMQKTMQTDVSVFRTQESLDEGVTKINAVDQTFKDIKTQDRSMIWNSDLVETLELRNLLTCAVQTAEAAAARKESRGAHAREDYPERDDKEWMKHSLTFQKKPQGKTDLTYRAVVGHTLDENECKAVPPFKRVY

The subject of assay [3] is Botrytis cinerea boscalid-resistant strains with SDHB_P225H, F substitutions. Briefly: Sensitivity assay in microtiter plate, resistance factor of boscalid-resistant field strains versus Bo47 WT. It counts as cell-based. As for the experimental part: Four to five strains with SDHB_P225H, F substitutions were retained for subsequent sensitivity assays in microtiter plate. IC50 of test compounds were determined and resistance factors (RF) calculated as the ratio of IC50 mutant/IC50 WT (Bo47). […] Strains giving a RF below 10 were considered sensitive, moderately resistant when RF was comprised between 10 and 50, resistant above 50.

Sequence of succinate-ubiquinone redutase (SDH) of mitochondria from Bo47 WT strain (A0A384K456 entry or part of it): as the sequence (A0A384K456 34-647 partner) above
Sequence of succinate-ubiquinone redutase (SDH) of mitochondria from Bo47 WT strain (D2IH03 entry or part of it): as the sequence (D2IH03 46-189, stated change not applied) above
Sequence of succinate-ubiquinone redutase (SDH) of mitochondria from Bo47 WT strain (A0A384J5E4 entry or part of it): as the sequence (A0A384J5E4 30-300, stated change not applied) above
Sequence of succinate-ubiquinone redutase (SDH) of mitochondria from Bo47 WT strain (D2IH01 entry or part of it): as the sequence (D2IH01 64-192, stated change not applied) above

Take `Cn1nc(C(F)F)c(C(=O)N(Cc2c(Cl)cccc2C(F)(F)F)C2CC2)c1F` [Compound A17, N-[2-chloro-6-(trifluoromethyl)benzyl]-N-cyclopropyl-3-(difluoromethyl)-5-fluoro-1-methyl-1H-pyrazole-4-carboxamide]: in assay [1], the IC50 was 10 nM. In assay [2], the IC50 is 3.16 nM and the Classification result is “A”.

Turning to `Cn1nc(C(F)F)c(C(=O)N(Cc2cc(F)ccc2C2CC2)C2CC2)c1F` [Compound A8, N-cyclopropyl-N-(2-cyclopropyl-5-fluorobenzyl)-3-(difluoromethyl)-5-fluoro-1-methyl-1H-pyrazole-4-carboxamide], in assay [1], the IC50 is 7.94 nM. Besides, in assay [2], the IC50 is 3.16 nM and the Classification result is reported as “A”.

In the case of `Cc1ccc(C(C)(C)C)c(CN(C(=O)c2c(C(F)F)nn(C)c2F)C2CC2)c1` [Compound A14, N-(2-tert-butyl-5-methylbenzyl)-N-cyclopropyl-3-(difluoromethyl)-5-fluoro-1-methyl-1H-pyrazole-4-carboxamide], the IC50 is 5.01 nM in assay [1] and 3.16 nM in assay [2]. In addition, in assay [2], the Classification result is given as “A”.

Turning to `CC(C)CC(C)c1sccc1NC(=O)c1cn(C)nc1C(F)(F)F` (stereo not drawn) [Penthiopyrad, reference compound], the IC50 in assay [1] is 15.8 nM. Further, in assay [2], the IC50 was 501 nM and the Classification result is listed as “C (Classification C pI50 decrease superior to 0.6 compared to WT)”.

`Cn1nc(C(F)F)c(C(=O)N(Cc2cc(Cl)ccc2C(F)(F)F)C2CC2)c1F` [Compound A15, N-[5-chloro-2-(trifluoromethyl)benzyl]-N-cyclopropyl-3-(difluoromethyl)-5-fluoro-1-methyl-1H-pyrazole-4-carboxamide] had an IC50 in assay [1] of 15.8 nM. Further, in assay [2], the IC50 is 6.31 nM and the Classification entry was “A”.

On to `Cc1ccc(C(C)C)c(CN(C(=O)c2c(C(F)F)nn(C)c2F)C2CC2)c1` [Compound A12, N-cyclopropyl-3-(difluoromethyl)-5-fluoro-N-(2-isopropyl-5-methylbenzyl)-1-methyl-1H-pyrazole-4-carboxamide], for which, in assay [1], the IC50 was 3.98 nM. In addition, in assay [2], the IC50 was 1 nM and the Classification entry was “A”.

In turn, `Cn1nc(C(F)F)c(C(=O)N(Cc2ccccc2[Si](C)(C)C)C2CC2)c1F` [Compound A22, N-cyclopropyl-3-(difluoromethyl)-5-fluoro-1-methyl-N-[2-(trimethylsilyl)benzyl]-1H-pyrazole-4-carboxamide] gave an IC50 in assay [1] of 3.98 nM. In addition, in assay [2], the IC50 is 3.16 nM and the Classification result was “A”.

On to `Cc1ccc(C(F)(F)F)c(CN(C(=O)c2c(C(F)F)nn(C)c2F)C2CC2)c1` [Compound A16, N-cyclopropyl-3-(difluoromethyl)-5-fluoro-1-methyl-N-[5-methyl-2-(trifluoromethyl)benzyl]-1H-pyrazole-4-carboxamide], for which, in assay [1], the IC50 is 20 nM. Further, in assay [2], the IC50 was 5.01 nM and the Classification result is recorded as “A”.

With `Cn1nc(C(F)F)c(C(=O)N(Cc2ccccc2C(C)(C)C)C2CC2)c1F` [Compound A3, N-(2-tert-butylbenzyl)-N-cyclopropyl-3-(difluoromethyl)-5-fluoro-1-methyl-1H-pyrazole-4-carboxamide], the “resistance factor (RF), ratio of IC50 mutant/IC50 WT (Bo47)” value in assay [3] (mutation P225F, BOTRCI strain 08BC1554) turned out to be 1.8; in assay [3] (mutation P225F, BOTRCI strain 08BC1557) it was 1.2; in assay [3] (mutation P225F, BOTRCI strain 08BC1558), 2.2; in assay [3] (mutation P225F, BOTRCI strain 09BC2615), 1.0; in assay [3] (mutation P225H, BOTRCI strain 09BC2640), 0.9; in assay [3] (mutation P225H, BOTRCI strain 09BC2648), 1.0. The “resistance factor (RF), ratio of IC50 mutant/IC50 WT (Bo47)” value turned out to be 1.7 in assay [3] (mutation P225H, BOTRCI strain 09BC2649) and 1.1 in assay [3] (mutation P225H, BOTRCI strain 09BC2652).

Take `CC(C)c1ccc(Cl)cc1CN(C(=O)c1c(C(F)F)nn(C)c1F)C1CC1` [Compound A5, N-(5-chloro-2-isopropylbenzyl)-N-cyclopropyl-3-(difluoromethyl)-5-fluoro-1-methyl-1H-pyrazole-4-carboxamide]: the IC50 was 6.31 nM in assay [1] and 1.26 nM in assay [2]. In addition, in assay [2], the Classification result is “A”.

Compound `Cn1nc(C(F)F)c(C(=O)N(Cc2cc(F)ccc2C2CCCC2)C2CC2)c1F` [Compound A9, N-(2-cyclopentyl-5-fluorobenzyl)-N-cyclopropyl-3-(difluoromethyl)-5-fluoro-1-methyl-1H-pyrazole-4-carboxamide] gave an IC50 in assay [1] of 5.01 nM. In assay [2], the IC50 is 3.16 nM and the Classification entry is given as “A”.

Regarding `CCc1ccc(F)cc1CN(C(=O)c1c(C(F)F)nn(C)c1F)C1CC1` [Compound A6, N-cyclopropyl-3-(difluoromethyl)-N-(2-ethyl-5-fluorobenzyl)-5-fluoro-1-methyl-1H-pyrazole-4-carboxamide], in assay [1], the IC50 was 7.94 nM. Further, in assay [2], the IC50 was 2.51 nM and the Classification result was “A”.

Consider `CC(C)c1ccc(F)cc1CN(C(=O)c1c(C(F)F)nn(C)c1F)C1CC1` [Compound A7, N-cyclopropyl-3-(difluoromethyl)-5-fluoro-N-(5-fluoro-2-isopropylbenzyl)-1-methyl-1H-pyrazole-4-carboxamide], for which the IC50 in assay [1] is 3.98 nM; in assay [2] it was 1.58 nM. In assay [2], the Classification result is reported as “A”.

As to `Cn1nc(C(F)F)c(C(=O)N(Cc2c(C(F)(F)F)ccc(Cl)c2F)C2CC2)c1F` [Compound A18, N-[3-chloro-2-fluoro-6-(trifluoromethyl)benzyl]-N-cyclopropyl-3-(difluoromethyl)-5-fluoro-1-methyl-1H-pyrazole-4-carboxamide], the “activity on strains with P225 substitutions compared with wild type strain” value in assay [3] (strains with P225 substitutions vs wild type) is listed as “always more active on strains with P225 substitutions than on wild type strain”. The IC50 in assay [1] was 15.8 nM. For the same compound, in assay [2], the IC50 was 6.31 nM and the Classification entry is recorded as “A”.

In the case of `Cn1nc(C(F)F)c(C(=O)N(Cc2ccccc2C2CC2)C2CC2)c1F` [Compound A2, N-cyclopropyl-N-(2-cyclopropylbenzyl)-3-(difluoromethyl)-5-fluoro-1-methyl-1H-pyrazole-4-carboxamide], the IC50 was 6.31 nM in assay [1] and 2.51 nM in assay [2]. For the same compound, the Classification entry in assay [2] was “A”.

On to `O=C(Nc1ccccc1-c1ccc(Cl)cc1)c1cccnc1Cl` [Boscalid, reference compound], for which, in assay [1], the IC50 was 39.8 nM. In assay [2], the IC50 was 5010 nM and the Classification result is reported as “C (Classification C pI50 decrease superior to 0.6 compared to WT)”.

With `CC(C)c1ccccc1CN(C(=S)c1c(C(F)F)nn(C)c1F)C1CC1` [Compound A20, N-cyclopropyl-3-(difluoromethyl)-5-fluoro-N-(2-isopropylbenzyl)-1-methyl-1H-pyrazole-4-carbothioamide], the IC50 in assay [1] was 631 nM. Also, in assay [2], the IC50 was 31.6 nM and the Classification result was “A”.

With `CCc1ccccc1CN(C(=O)c1c(C(F)F)nn(C)c1F)C1CC1` [Compound A21, N-cyclopropyl-3-(difluoromethyl)-N-(2-ethylbenzyl)-5-fluoro-1-methyl-1H-pyrazole-4-carboxamide], the IC50 was 10 nM and 31.6 nM in assay [1]; 2.51 nM in assay [2]. In addition, in assay [2], the Classification entry is “A”.

Take `CC(C)c1cccc(F)c1CN(C(=O)c1c(C(F)F)nn(C)c1F)C1CC1` [Compound A10, N-cyclopropyl-3-(difluoromethyl)-5-fluoro-N-(2-fluoro-6-isopropylbenzyl)-1-methyl-1H-pyrazole-4-carboxamide]: the IC50 in assay [1] was 3.98 nM; in assay [2], 6.31 nM. Besides, the Classification result in assay [2] is “B (Classification B pI50 decrease inferior or equal to 0.6 compared to WT)”.

In assay [1], `CC(C)c1ccccc1CN(C(=O)c1c(C(F)F)nn(C)c1F)C1CC1` [Compound A1, N-cyclopropyl-3-(difluoromethyl)-5-fluoro-N-(2-isopropylbenzyl)-1-methyl-1H-pyrazole-4-carboxamide] had an IC50 of 12.6 nM. Further, in assay [2], the IC50 is 3.16 nM and the Classification entry was “A”.
